Legend:
human DPP8 = molecular target: T1, human DPP8 (Homo sapiens, UniProt Q6V1X1); test: Steady-state inhibition of isolated cloned DPP8 at 37°C (gly-pro-pNA); type: biochemical
T1 construct: made in house
Experimental: (§1) All solutions were preheated to 37°C. Inhibitors were preincubated with enzyme for 40 minutes prior to assay initiation. […] Softmax Pro software from Molecular Devices (Sunnyvale, CA) was used to obtain the initial slope of the reaction in each well, and the fits were inspected to insure that the reactions were linear to a correlation coefficient of 0.99. An Excel template with XLFit (IDBS, Guildford, U.K.) was used for determination of the IC50 for inhibition at each substrate concentration. […] Therefore, IC50 was then converted to Ki assuming competitive inhibition according to:
(§2) The calculated Ki values for competitive inhibition at each substrate concentration were averaged and reported. DPP8 and DPP9 were tested under identical conditions. The in vitro assays were also used to determine substrate Km, by varying substrate concentration across an appropriate range. Km was calculated using GraFit software (Erithacus, Surrey U.K.)

human DPP9 = molecular target: T2, human DPP9 (Homo sapiens, UniProt Q86TI2); test: Steady-state inhibition of isolated cloned DPP9 at 37°C (gly-pro-pNA); type: biochemical
T2 construct: made in house
T2 sequence (Q86TI2 whole entry): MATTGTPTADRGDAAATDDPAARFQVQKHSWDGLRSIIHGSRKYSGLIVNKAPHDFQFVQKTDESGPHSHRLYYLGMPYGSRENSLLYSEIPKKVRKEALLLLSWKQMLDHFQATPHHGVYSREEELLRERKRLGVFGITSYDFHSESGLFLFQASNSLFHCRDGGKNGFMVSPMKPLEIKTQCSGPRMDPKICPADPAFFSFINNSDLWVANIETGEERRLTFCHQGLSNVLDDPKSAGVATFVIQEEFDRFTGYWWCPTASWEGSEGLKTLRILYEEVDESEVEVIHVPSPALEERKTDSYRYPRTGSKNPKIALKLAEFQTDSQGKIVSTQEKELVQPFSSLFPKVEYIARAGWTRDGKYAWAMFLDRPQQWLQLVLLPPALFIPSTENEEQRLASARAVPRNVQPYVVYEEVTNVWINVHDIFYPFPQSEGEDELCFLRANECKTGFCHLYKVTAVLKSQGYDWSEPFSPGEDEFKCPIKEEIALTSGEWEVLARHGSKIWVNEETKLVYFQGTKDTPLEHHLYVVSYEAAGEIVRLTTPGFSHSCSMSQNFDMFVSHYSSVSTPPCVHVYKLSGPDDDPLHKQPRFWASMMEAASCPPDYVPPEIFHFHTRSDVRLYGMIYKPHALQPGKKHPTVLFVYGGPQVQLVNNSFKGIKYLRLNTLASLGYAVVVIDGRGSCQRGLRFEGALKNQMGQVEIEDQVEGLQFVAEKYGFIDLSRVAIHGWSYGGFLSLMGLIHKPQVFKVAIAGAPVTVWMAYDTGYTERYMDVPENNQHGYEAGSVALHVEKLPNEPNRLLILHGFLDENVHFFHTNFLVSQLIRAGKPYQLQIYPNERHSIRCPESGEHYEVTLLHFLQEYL
Experimental: as §1, §2

cynomolgus monkey DPP4 = molecular target: T3, cynomolgus monkey DPP4 (UniProt A0A075TEP6); test: Steady-state inhibition of isolated cloned DPP4 at 37°C (gly-pro-pNA); type: biochemical; details: mean ± SD (n)
T3 construct: made in house
T3 sequence (A0A075TEP6 1-766): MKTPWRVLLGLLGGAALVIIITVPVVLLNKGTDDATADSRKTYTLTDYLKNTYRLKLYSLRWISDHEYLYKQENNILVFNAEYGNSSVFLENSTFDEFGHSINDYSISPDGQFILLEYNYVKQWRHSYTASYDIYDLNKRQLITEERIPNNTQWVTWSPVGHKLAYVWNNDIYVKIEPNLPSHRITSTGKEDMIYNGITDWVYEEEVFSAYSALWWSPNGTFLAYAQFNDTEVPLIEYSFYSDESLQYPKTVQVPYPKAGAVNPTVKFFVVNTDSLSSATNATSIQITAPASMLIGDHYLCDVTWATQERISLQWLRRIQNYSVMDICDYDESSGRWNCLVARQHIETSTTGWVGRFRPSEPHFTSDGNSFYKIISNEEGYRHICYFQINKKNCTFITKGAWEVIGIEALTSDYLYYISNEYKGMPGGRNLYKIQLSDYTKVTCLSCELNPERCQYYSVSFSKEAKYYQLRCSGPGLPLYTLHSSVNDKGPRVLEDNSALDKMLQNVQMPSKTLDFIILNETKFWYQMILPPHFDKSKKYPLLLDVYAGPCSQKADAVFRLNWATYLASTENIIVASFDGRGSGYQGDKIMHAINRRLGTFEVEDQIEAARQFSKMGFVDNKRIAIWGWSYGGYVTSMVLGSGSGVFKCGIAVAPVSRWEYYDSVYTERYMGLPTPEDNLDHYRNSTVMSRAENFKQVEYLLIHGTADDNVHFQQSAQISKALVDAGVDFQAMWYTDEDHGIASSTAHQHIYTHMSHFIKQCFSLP
Experimental: (§3) All solutions were preheated to 37°C.
(§4) DPP8 and DPP9 were tested under identical conditions.

cynomolgus monkey DPP8 = cynomolgus monkey DPP8 (Macaca fascicularis, UniProt A0A2K5VHB7); test: Steady-state inhibition of isolated cloned DPP8 at 37°C (gly-pro-pNA); type: biochemical; details: mean ± SD (n)
Chain of cynomolgus monkey DPP8 (A0A2K5VHB7 1-898): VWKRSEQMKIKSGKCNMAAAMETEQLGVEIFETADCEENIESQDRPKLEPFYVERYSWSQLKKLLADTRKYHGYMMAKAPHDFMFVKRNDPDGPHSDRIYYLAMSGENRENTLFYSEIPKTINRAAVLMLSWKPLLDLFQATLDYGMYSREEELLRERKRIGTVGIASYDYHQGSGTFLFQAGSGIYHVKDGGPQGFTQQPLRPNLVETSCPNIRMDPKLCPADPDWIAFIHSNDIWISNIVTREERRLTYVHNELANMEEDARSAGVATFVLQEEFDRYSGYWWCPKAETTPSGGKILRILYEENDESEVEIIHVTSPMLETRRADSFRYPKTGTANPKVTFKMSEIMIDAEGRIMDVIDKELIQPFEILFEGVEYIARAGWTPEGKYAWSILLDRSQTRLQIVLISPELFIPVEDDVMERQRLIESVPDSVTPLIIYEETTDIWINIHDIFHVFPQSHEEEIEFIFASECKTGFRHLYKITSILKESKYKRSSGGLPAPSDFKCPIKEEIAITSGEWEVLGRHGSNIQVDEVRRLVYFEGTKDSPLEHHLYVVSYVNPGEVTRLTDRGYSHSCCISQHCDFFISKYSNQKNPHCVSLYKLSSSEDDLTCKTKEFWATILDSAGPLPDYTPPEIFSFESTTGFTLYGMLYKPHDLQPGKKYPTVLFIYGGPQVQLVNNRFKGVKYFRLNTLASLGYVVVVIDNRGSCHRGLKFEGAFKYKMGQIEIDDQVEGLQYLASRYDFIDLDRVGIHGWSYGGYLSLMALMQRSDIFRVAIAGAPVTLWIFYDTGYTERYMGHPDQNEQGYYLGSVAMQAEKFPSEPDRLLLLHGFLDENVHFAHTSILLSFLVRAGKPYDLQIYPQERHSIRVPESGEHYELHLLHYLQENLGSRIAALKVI
Experimental: as §3, §4

cynomolgus monkey DPP9 = cynomolgus monkey DPP9 (Macaca fascicularis, UniProt A0A2K5TQ54); test: Steady-state inhibition of isolated cloned DPP9 at 37°C (gly-pro-pNA); type: biochemical; details: mean ± SD (n)
Chain of cynomolgus monkey DPP9 (A0A2K5TQ54 156-951): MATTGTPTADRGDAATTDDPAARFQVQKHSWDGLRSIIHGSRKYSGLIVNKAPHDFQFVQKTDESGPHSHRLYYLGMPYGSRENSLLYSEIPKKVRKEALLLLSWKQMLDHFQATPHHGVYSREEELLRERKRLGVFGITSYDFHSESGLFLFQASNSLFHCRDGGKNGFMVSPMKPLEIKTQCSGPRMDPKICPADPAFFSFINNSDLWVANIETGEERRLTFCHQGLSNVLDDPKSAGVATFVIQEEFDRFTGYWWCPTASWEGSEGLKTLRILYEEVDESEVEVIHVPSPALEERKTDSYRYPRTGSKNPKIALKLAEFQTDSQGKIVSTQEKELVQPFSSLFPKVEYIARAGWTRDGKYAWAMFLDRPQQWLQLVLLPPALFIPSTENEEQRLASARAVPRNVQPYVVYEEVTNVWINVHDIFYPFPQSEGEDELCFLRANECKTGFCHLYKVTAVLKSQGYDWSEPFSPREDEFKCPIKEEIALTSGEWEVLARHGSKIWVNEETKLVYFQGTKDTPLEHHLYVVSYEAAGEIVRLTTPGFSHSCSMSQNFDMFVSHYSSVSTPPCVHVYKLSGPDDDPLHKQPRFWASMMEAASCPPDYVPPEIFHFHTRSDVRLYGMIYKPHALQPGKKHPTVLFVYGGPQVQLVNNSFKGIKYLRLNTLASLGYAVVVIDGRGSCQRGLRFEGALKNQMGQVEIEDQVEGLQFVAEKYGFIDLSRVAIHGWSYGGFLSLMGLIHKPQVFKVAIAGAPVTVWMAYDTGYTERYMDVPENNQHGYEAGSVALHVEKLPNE
Experimental: as §3, §4

[1] = molecular target: cynomolgus monkey plasma DPP activity (Macaca fascicularis, UniProt A0A2K5VXJ1); test: Ala-pro-AFC plasma DPP inhibition assay in vitro; type: biochemical
Chain of cynomolgus monkey plasma DPP activity (A0A2K5VXJ1 39-766): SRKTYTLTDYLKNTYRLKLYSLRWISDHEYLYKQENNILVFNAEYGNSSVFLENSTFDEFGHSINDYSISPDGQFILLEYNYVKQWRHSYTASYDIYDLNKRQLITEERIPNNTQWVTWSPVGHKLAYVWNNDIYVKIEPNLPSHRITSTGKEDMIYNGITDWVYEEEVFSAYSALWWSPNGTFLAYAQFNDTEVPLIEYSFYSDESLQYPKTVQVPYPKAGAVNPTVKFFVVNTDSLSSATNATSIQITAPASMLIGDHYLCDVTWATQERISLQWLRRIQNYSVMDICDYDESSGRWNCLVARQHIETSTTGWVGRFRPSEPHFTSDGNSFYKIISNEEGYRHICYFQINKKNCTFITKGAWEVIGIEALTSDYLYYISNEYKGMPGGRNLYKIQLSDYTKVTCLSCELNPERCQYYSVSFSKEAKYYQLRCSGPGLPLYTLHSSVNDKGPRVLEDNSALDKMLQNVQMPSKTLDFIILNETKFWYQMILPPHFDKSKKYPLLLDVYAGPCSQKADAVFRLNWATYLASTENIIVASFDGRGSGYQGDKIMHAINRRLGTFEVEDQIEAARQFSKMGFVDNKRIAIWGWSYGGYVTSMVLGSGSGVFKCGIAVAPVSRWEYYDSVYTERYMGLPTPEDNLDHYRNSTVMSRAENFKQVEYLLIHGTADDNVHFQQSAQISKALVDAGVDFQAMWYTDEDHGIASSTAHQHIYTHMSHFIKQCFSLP
Excerpt: (§5) This procedure produced a 3-fold dilution of plasma.

plasma DPP activity [2] = test: Cynomolgus monkey ex vivo plasma DPP inhibition, ala-pro-AFC assay; type: in vivo; details: cynomolgus monkeys, single oral doses, 24 hours post dose
Experimental: (§6) Male and female cynomolgus monkeys (Charles River BRF, Houston, TX), were housed in an AAALAC-accredited facility (on a 12-hour light/dark cycle) in stainless-steel cages. They had access to purified tap water ad libitum and were fed Harlan Diet 2050 C (Certified 20% protein primate diet). […]. Doses were administered once weekly using a crossover design such that no monkeys received the same dose twice. For the ex vivo cynomolgus monkey assays, blood samples (approximately 0.5 ml) were collected prior to dosing and 1, 2, 4, 6, 8, and 24 hours post dosing in tubes containing K2EDTA. Tubes were inverted several times to ensure mixing, and placed on ice. Samples were centrifuged at 5000 rpm for 10 minutes at 4°C for plasma isolation. Plasma was stored at -20°C until analyzed for DPP activity. No difference in DPP inhibition was noted between males and females and so data were combined for analyses.
as §5

plasma DPP activity [3] = test: Cynomolgus monkey ex vivo plasma DPP inhibition, gly-pro-pNA assay; type: in vivo; details: cynomolgus monkeys, single oral doses, 24 hours post dose, same samples
Experimental: as §6
This assay was reported by Merck as used in their clinical trials, using gly-pro-pNA as substrate. […] Activity, the rate of release of free pNA from the pseudo-substrate, was assayed at 30°C, using a Spectramax 340 plate reader ([…]) with rate determining software. Absorbance at 390 nm was measured. Results were expressed as arbitrary units because standard pNA curves were not run for all experiments. The extent of DPP inhibition and IC50 values were calculated as described above.

[4] = human, 37°C, gly-pro-pNA, mean ± SD (n)

T1 sequence (Q6V1X1 whole entry): as the sequence (A0A2K5VHB7 1-898) above, with V1M, M357I, S605P, L609P, D823N counted along it

Structure (SMILES) | slow binding kinetics to DPP8 (human DPP8) | Ki (human DPP8; [4]) | slow binding kinetics to DPP9 (human DPP9) | Ki (human DPP9; [4]) | Ki (cynomolgus monkey DPP4) | Ki (cynomolgus monkey DPP8) | Ki (cynomolgus monkey DPP9) | increase of IC50 in the ala-pro-AFC assay compared to the gly-pro-pNA assay [1] | plasma DPP inhibition ex vivo (plasma DPP activity [2]) | plasma DPP inhibition ex vivo (plasma DPP activity [3])
N#C[C@@H]1C[C@@H]2C[C@@H]2N1C(=O)[C@@H](N)C12CC3CC(O)(CC(O)(C3)C1)C2 [5-hydroxysaxagliptin] | Neither saxagliptin nor 5-hydroxysaxagliptin exhibited slow binding kinetics | 2500 ± 727 nM | Neither saxagliptin nor 5-hydroxysaxagliptin exhibited slow binding kinetics | 423 ± 64 nM | 2.9 ± 1.1 nM | 2060 ± 658 nM | 323 ± 60 nM |  |  | 
N#C[C@@H]1CCCN1C(=O)CNC12CC3CC(CC(O)(C3)C1)C2 [Vildagliptin, reference compound] |  |  |  |  |  |  | 125 ± 39 nM |  |  | 
N[C@@H](CC(=O)N1CCn2c(nnc2C(F)(F)F)C1)Cc1cc(F)c(F)cc1F [Sitagliptin, reference compound] |  |  |  |  |  | 21900 ± 17500 nM | 65800 ± 7970 nM | 26 fold | no effect on plasma DPP activity at any of the doses | statistically significant inhibition of plasma DPP activity at 3, 10 and 40 mg/kg doses
N#C[C@@H]1C[C@@H]2C[C@@H]2N1C(=O)[C@@H](N)C12CC3CC(CC(O)(C3)C1)C2 [Saxagliptin, (1 S,3 S,5 S)-2-[(2 S)-2-Amino-2-(3-hydroxytricyclo[3.3.1.1^3,7]dec-1-yl)acetyl]-2-azabicyclo[3.1.0]hexane-3-carbonitrile, monohydrate] |  |  |  |  |  | 390 ± 82 nM | 61 ± 5 nM |  | close to maximal inhibition of the inhibitable plasma DPP activity at its highest doses | 
